Assay results as given in paper PMC9312958, “A Novel and Selective Dopamine Transporter Inhibitor, (S)-MK-26, Promotes Hippocampal Synaptic Plasticity and Restores Effort-Related Motivational Dysfunctions” (Biomolecules, 2022).

Experiments:
hDAT = target: T1, hDAT (Homo sapiens, UniProt Q01959); experiment: hDAT radioligand binding assay (CHO cells, [3H]BTCP)
T1 construct: expressed in transfected cells
Experimental: (§1) Binding affinity to the hDAT, hNET and hSERT expressed in CHO cells was evaluated in in vitro radioligand binding assays. Binding assays were conducted according to the standard and validated protocols under conditions defined by the contractor (Eurofins Cerep SA, Celle-’Evescault, France; study number 100054410). Antagonist radioligand assays were conducted for the human norepinephrine, the human dopamine, and the serotonin transporters (using CHO cells), using [^3H]nisoxetine (1 nM), [^3H]BTCP (4 nM), and [^3H]imipramine (2 nM) as ligands and desipramine (1 µM), BTCP (10 µM), and imipramine (10 µM) as non-specific agents, respectively (with scintillation counting as detection method).

hNET [1] = target: T2, hNET (Homo sapiens, UniProt P23975); experiment: Uptake inhibition assay in HEK293 cells expressing hNET; format: cell-based
T2 construct: expressed in transfected cells
Experimental: Human embryonic kidney 293 cells (HEK293 cells) were cultivated in Dulbecco’s Modified Eagle Medium (DMEM), containing 10% heat-inactivated fetal calf serum (FCS; 100 mL/L), streptomycin (100 μg/100 mL) and penicillin ([…]). Geneticin (50 μg/mL) was added to select cells stably expressing the human isoforms of dopamine, norepinephrine and serotonin transporter (hDAT, hNET, and hSERT, respectively) as described earlier. Cell lines were maintained in culture in humidified atmosphere (37 °C, 5% CO2), and passaged when reached 80–90% confluency. Cells expressing the desired transporter were seeded the day before the experiment (40,000 cells per well) or two days before the experiments (20,000 cells per well) onto poly-D-lysine (PDL)-coated 96-well plates.
Uptake inhibition experiments were carried out as reported previously. Ninety-six-well plates containing hDAT-, hNET- or hSERT-expressing cells were washed with Krebs-HEPES buffer (KHB; 25 mM HEPES, 120 mM NaCl, 5 mM KCl, 1.2 mM CaCl2, and 1.2 mM MgSO4 and 5 mM D-glucose, pH = 7.3). Cells were then preincubated with increasing concentrations of the compound diluted in KHB for 6 min. Following the pre-incubation of the cells with the compound, the tritiated substrate (hDAT: 0.15 μM [^3H]DA; hNET: 0.05 μM [^3H]MPP^+; hSERT: 0.1 μM [^3H]5-HT) was added to the wells. The uptake was terminated by removal of tritiated substrate and by washing the cells with ice-cold KHB after 1 min (for hDAT and hSERT) or 3 min (for hNET). Thereafter, 200 μL of Ultima Gold^TM XR scintillation cocktail (PerkinElmer, MA, USA) was added, the plates were shaken and the radioactivity accumulated into the cells determined in a Wal-lac 1450 MicroBeta TriLux Liquid Scintillation Counter & Lumi (GMI, Ramsey, MN, USA). Non- specific tritiated substrate uptake was measured in the presence of 100 μM cocaine (for hDAT and hNET) or 10 μM paroxetine (for hSERT), and subtracted from the data. Uptake in the presence of test drugs was normalized to the uptake in the presence of the vehicle.

hNET [2] = target: T2, hNET; experiment: hNET radioligand binding assay (CHO cells, [3H]nisoxetine)
Experimental: as §1

[3] = system: adult male Sprague Dawley rats; experiment: FR5/chow feeding choice task; format: in vivo, rat
Experimental: Pharmacological agents: (S)-MK-26 was obtained from the Lubec Laboratory (University of Vienna, Austria) and dissolved in dimethyl sulfoxide (DMSO) (10%), Tween 80 (15%), and 0.9% saline (75%). The DMSO/Tween 80/saline mixture was administered as the vehicle control. The dose range was selected as 3.75–45.0 mg/kg based on its DAT affinity and pilot studies. It was administered 30 min before testing. TBZ (9,10-dimethoxy3-(2-methylpropyl)-1,3,4,6,7, 11b hexahydrobenzo[a]quinolizin2-one) was obtained from Tocris Bioscience (Ellisville, MO) and was dissolved in DMSO (20%) and 0.9% saline (80%) and was titrated with 1.0 N HCl until the drug was dissolved at a pH of 4.0–4.5. The DMSO/saline solution with equal amounts of HCl was administered as the vehicle control. The selected dose was 1.0mg/kg based on the previous research from our laboratory. It was administered 120 min prior to testing.
FR5/chow feeding choice task: A total of 8 adult male Sprague Dawley rats (Envigo Sprague Dawley, Indianapolis, IN, USA; weights 275–299 g upon arrival) were pair-housed in a colony maintained at 23 °C, with a 12 h light/dark cycle (lights on 07:00). Rats were food deprived to 85% of their free-feeding body weight with modest growth throughout the experiment and water was available ad libitum in their home cages. All the animal protocols were approved by the University of Connecticut Institutional Animal Care and Use Committee, and the experiments were completed according to National Institutes of Health guidelines.
Behavioral sessions were conducted in operant chambers (28 × 23 × 23 cm^3; Med Associates, Fairfax, VT, USA) with 30 min sessions 5 days/week. Rats were initially trained to lever press on magazine training for 3 days, followed by an FR1 schedule for 3 days (high-carbohydrate 45-mg pellets, Bio-Serv, Frenchtown, NJ, USA), and then moved to the FR5 schedule. After 5 weeks of training on the FR5 schedule, lab chow was introduced as the concurrently available choice food (Laboratory Diet, 5P00 Prolab RMH 3000, Purina Mills, St. Louis, MO, USA; typically 15–20 g). At the end of each session, rats were immediately removed from the chambers. The number of lever pressing was recorded and the amount of consumed chow was calculated by weighing the remaining food, including spillage. Rats were trained on the FR5/chow feeding choice task for 5 weeks, after which drug testing began.
To test the effects of (S)-MK-26 on FR5/Chow feeding choice task, trained rats were administered either with TBZ (1.0 mg/kg) or vehicle 120 min before testing, and (S)-MK-26 also with doses of 15.0, 30.0, 45.0 mg/kg or vehicle 30 min before testing, via intraperitoneal (IP) injections on drug testing days. A repeated-measures design was utilized where each rat received each drug treatment in a randomly varied order, once per week. The following five treatment combinations were given: TBZ vehicle + (S)-MK-26 vehicle; 1.0 mg/kg TBZ + (S)-MK-26 vehicle; 1.0 mg/kg TBZ + 15.0 mg/kg (S)-MK-26; 1.0 mg/kg TBZ + 30.0 mg/kg (S)-MK-26; 1.0 mg/kg TBZ + 45.0 mg/kg (S)-MK-26. Next, to see if the effects of lower doses, the following four treatment combinations were given in a repeated measure design: TBZ vehicle + (S)-MK-26 vehicle; 1.0 mg/kg TBZ + (S)-MK-26 vehicle; 1.0 mg/kg TBZ + 3.75 mg/kg (S)-MK-26; 1.0 mg/kg TBZ + 7.5 mg/kg (S)-MK-26.

[4] = 15.0, 30.0 and 45.0 mg/kg i.p. coadministered with 1.0 mg/kg TBZ

T2 sequence (P23975 whole entry): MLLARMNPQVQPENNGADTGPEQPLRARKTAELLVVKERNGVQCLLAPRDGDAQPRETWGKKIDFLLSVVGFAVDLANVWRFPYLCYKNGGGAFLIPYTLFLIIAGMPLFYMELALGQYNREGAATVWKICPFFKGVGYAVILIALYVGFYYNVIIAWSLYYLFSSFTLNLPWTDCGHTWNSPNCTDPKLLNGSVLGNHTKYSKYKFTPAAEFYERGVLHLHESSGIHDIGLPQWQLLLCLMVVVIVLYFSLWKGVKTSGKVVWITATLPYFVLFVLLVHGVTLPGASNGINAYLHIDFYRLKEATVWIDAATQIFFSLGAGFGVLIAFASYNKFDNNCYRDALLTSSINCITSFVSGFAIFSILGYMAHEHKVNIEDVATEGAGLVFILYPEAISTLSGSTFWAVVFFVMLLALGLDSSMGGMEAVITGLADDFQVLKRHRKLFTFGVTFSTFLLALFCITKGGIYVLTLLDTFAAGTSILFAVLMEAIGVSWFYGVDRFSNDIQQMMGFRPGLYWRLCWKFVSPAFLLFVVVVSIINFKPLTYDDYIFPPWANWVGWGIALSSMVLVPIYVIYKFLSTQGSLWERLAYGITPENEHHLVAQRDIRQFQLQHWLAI
T1 sequence (Q01959 whole entry): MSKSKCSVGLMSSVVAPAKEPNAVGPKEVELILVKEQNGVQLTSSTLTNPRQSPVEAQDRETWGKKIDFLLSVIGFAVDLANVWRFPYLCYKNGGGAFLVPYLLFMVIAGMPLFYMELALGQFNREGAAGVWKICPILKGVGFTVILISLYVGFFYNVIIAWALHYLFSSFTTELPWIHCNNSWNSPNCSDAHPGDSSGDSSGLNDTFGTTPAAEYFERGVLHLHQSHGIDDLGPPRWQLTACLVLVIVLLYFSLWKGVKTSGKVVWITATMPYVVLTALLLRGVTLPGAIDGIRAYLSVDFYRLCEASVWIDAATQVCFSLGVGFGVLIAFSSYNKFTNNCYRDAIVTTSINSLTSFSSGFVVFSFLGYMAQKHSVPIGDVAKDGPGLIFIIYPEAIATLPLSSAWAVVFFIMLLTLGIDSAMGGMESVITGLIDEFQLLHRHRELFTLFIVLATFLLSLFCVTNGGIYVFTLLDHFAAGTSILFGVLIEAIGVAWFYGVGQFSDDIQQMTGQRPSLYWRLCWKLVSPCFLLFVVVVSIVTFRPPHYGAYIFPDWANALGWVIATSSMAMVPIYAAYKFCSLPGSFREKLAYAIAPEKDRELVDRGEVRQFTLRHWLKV

Q: What does the source list for [O-][S@@+](Cc1cncs1)C(c1cccc(Cl)c1)c1cccc(Cl)c1 [(S)-MK-26, (S)-5-(((B(3-chlorophenyl)methyl)sulphinyl)methyl)thiazole]?
A: Ki (hDAT): 0.026 µM; IC50 (hNET [1]): 63.5 µM; binding to NET (hNET [2]): trifling bindings; effect on TBZ-induced change in chow intake [3, 4]: significantly attenuated the effects of TBZ; effect on TBZ-induced change in lever pressing [3, 4]: significantly attenuated the effects of TBZ; potency in effort-based choice tests compared to other modafinil analogs ([3]; comparison with earlier studies): lower potency than (S,S)-CE-158; reversal of TBZ effects on lever pressing and chow intake ([3]; low-dose progression 3.75 and 7.5 mg/kg i.p. with 1.0 mg/kg TBZ): failed to reverse the effects of TBZ
